In US20120171123A1, “USES AND COMPOSITIONS FOR TREATMENT OF RHEUMATOID ARTHRITIS” (priority 2006, published 2012):

Test system: MTX-naïve adult patients with active, early RA (<3 years)
Experiment: Study J: radiographic progression (TSS, joint erosion, joint space narrowing)
Format: in vivo, human
Design: key to mean change from baseline in TSS / Mean change in TSS / TSS after 2 years / change in TSS over 2 years / mean change in TSS from baseline / Mean ΔTSS at 1 year / Mean ΔTSS Yr 1-Yr 2: modified total Sharp score, 0-398 scale
Settings: for Annualized rate of radiographic progression (ΔTSS): all pts in treatment arm
Excerpt: The co-primary endpoints, comparing MTX alone with the combination at 1 year, were the ACR50 response (using non-responder imputation), and inhibition of radiographic progression, as measured by change in total Sharp score (TSS). In this study, the term “Major Clinical Response” (MCR) meant a continuous ACR70 response for 6 or more consecutive months.
At 1 and 2 years, the American College of Rheumatology (ACR) responses (ACR20, ACR50, and ACR70), the Disease Activity Score 28 (DAS28), and the change (Δ) in Total Sharp Score (TSS) were determined for all patients. Results were analyzed for the intention-to-treat (ITT) population using imputation for missing data. Clinical remission was defined as DAS28<2.6. The mean ΔTSS values at 1 year and 2 years (N=791) were determined for patients in each ACR response category (ACR20/50/70) and for patients with DAS28<2.6
Radiographic progression was measured by Total Sharp Score (TSS) at baseline, and 1 and 2 years in the intention to treat population (ITT) using imputation for missing data. In this analysis, patients were divided into 1 of 2 categories by disease duration at baseline: <6 months (Group 1) or 6 months to 3 years (Group 2). Mean changes in TSS were reported for both groups by each of the 3 treatment arms from baseline to Year 1 and from Year 1 to Year 2.
Radiographic progression was assessed by mean change from baseline in Total Sharp Score (TSS) and stratified into those with (ΔTSS>0.5) and without (Δ≦TSS 0.5). Patients were categorized as either having radiographic progression at 1 year (ΔTSS>0.5) or not (Δ≦TSS 0.5). A logistic regression model was used to identify predictors of radiographic disease progression by testing several baseline characteristics, including age, disease duration, RF status, TJC, SJC, joint erosions, and CRP. For analyses of CRP, patients were categorized as normal (CRP≦0.8 mg/dL) or abnormal (CRP>0.8 mg/dL).
Mean change from baseline in Total Sharp Score (TSS) was measured at 6 months, 1 year, and 2 years in the intention-to-treat (ITT) population using imputation for missing data. Patients were classified as having radiographic progression (mean change in TSS>0.5) or without radiographic progression (ΔTSS≦0.5). Patients with inadequate data were excluded from this analysis.
Patients in the Ada+MTX and the MTX arms were classified according to level of clinical response (non-responder (<ACR20), ACR20, ACR50, or ACR70) and radiographic progression (Yes or No (ΔTSS≦0.5)). The ΔTSS was analyzed overall, and for ACR subgroups. This included determination of mean ΔTSS and probability plots.
Study J was a 2-year, double-blind, active comparator-controlled, Phase III study. […] For each patient, radiographs of hands and feet were taken at baseline, 6 months, 1 year and 2 years and evaluated for joint erosions (JE) and joint space narrowing (JSN) by 2 blinded radiologists. Changes from baseline in the modified total Sharp score (TSS, 0-398) were calculated for patients in each treatment arm. Cumulative probability plots were generated by estimating the probability of exceeding a given change in TSS. For each treatment, we calculated the percentages of patients whose ΔTSS exceeded specified thresholds, and the probability of having a given ΔTSS (using cumulative probability plots). For each of 4 cumulative probability ranges, 0-10%, 10-50%, 50-90% and 90-100% (higher numbered ranges=greater ΔTSS), mean ΔTSS values were calculated. In previous reports, Study J radiographic analyses employed linear imputation. In the present analysis, only observed data were employed, with no imputation.

[1] = Group 1, BL disease duration <6 mos (n=448)
[2] = Group 2, BL disease duration 6 mos to 3 yrs (n=333)
[3] = disease duration 6 months to 3 years
[4] = disease duration 6 months-3 years (n=333)

CN(Cc1cnc2nc(N)nc(N)c2n1)c1ccc(C(=O)N[C@@H](CCC(=O)O)C(=O)O)cc1 [mtx alone, methotrexate]
Annualized rate of radiographic progression (ΔTSS) (0-6 mos): 7.0 Sharp Score Units per Year | Annualized rate of radiographic progression (ΔTSS) (1-2 yrs): 4.7 Sharp Score Units per Year | patients with ΔTSS≦0.5 among those achieving DAS28 remission (1 year): 47% | Mean change in TSS (1 year, ACR20 responders): 3.9 | mean change in JE score (1 year, ACR20 responders): 2.0 | mean change in JSN (1 year, ACR20 responders): 1.4 | Mean change in TSS (1 year, ACR50 responders): 3.2 | mean change in JE score (1 year, ACR50 responders): 2.2 | mean change in JSN (1 year, ACR50 responders): 1.0 | Mean change in TSS (1 year, ACR70 responders): 2.7 | mean change in JE score (1 year, ACR70 responders): 1.6 | mean change in JSN (1 year, ACR70 responders): 1.1 | patients with no radiographic progression (1 year, abnormal baseline CRP normalized at 1 year): 33% | patients with no radiographic progression (1 year, elevated CRP at both baseline and 1 year): 31% | patients with no disease progression (ΔTSS≦0.5) (1 year, patients with CRP and X-rays available): 38% | Mean change in TSS (1 year, patients with DAS28<2.6): 1.9 | Mean change in TSS (1 year, patients with DAS28<2.6, listed as MTX alone): 2.8 | % of patients with >4 change TSS (2 years): 41.3% | % of patients with >10 change TSS (2 years): 23.3% | % of patients with >20 change TSS (2 years): 7% | patients with no radiographic progression (change in TSS ≦0.5) (2 years): 34% | patients with ΔTSS≦0.5 among those achieving DAS28 remission (2 years): 47% | Mean change TSS in radiographic progressors (ΔTSS > 0.5) (2 years, ACR20 responders): 9.4 | mean change in JE score (2 years, ACR20 responders): 3.6 | mean change in JSN (2 years, ACR20 responders): 2.3 | mean change in TSS from baseline (2 years, ACR20 responders): 5.5 | mean change in TSS from baseline (2 years, ACR20 responders, listed as MTX alone): 5.8 | Mean change TSS in radiographic progressors (ΔTSS > 0.5) (2 years, ACR50 responders): 8.5 | mean change in JE score (2 years, ACR50 responders): 3.0 | mean change in JSN (2 years, ACR50 responders): 1.8 | mean change in TSS from baseline (2 years, ACR50 responders): 4.9 | Mean change TSS in radiographic progressors (ΔTSS > 0.5) (2 years, ACR70 responders): 7.5 | mean change in JE score (2 years, ACR70 responders): 2.6 | mean change in JSN (2 years, ACR70 responders): 1.4 | mean change in TSS from baseline (2 years, ACR70 responders): 4.1 | Mean change in TSS (2 years, patients with DAS28<2.6): 2.8 | Mean change in TSS (2 years, patients with DAS28<2.6, listed as MTX alone): 1.9 | Frequency of radiographic progression (ΔTSS > 0.5), % of patients (2 years, ACR20 responders, observed data): 62% | Frequency of radiographic progression (ΔTSS > 0.5), % of patients (2 years, ACR50 responders, observed data): 60% | Frequency of radiographic progression (ΔTSS > 0.5), % of patients (2 years, ACR70 responders, observed data): 57% | Mean change TSS in radiographic progressors (ΔTSS > 0.5) (2 years, Non-responder (<ACR20)): 15.5 | Frequency of radiographic progression (ΔTSS > 0.5), % of patients (2 years, Non-responder (<ACR20), observed data): 75% | Mean change in TSS (2 years, all points (0-100), observed data): 6.4 | Mean change in TSS (2 years, cumulative probability range 0-10): −3.9 | Mean change in TSS (2 years, cumulative probability range 10-50): 0.5 | Mean change in TSS (2 years, cumulative probability range 50-90): 7.6 | Mean change in TSS (2 years, cumulative probability range 90-100): 31.4 | % of patients with >4 change TSS (6 months): 0% | % of patients with >10 change TSS (6 months): 1.7% | % of patients with >20 change TSS (6 months): 2.3% | patients with no radiographic progression (6 months): 51% | Mean change TSS in radiographic progressors (ΔTSS > 0.5) (6 months, ACR20 responders): 4.8 | Frequency of radiographic progression (ΔTSS > 0.5), % of patients (6 months, ACR20 responders, observed data): 55% | Mean change TSS in radiographic progressors (ΔTSS > 0.5) (6 months, ACR50 responders): 3.8 | Frequency of radiographic progression (ΔTSS > 0.5), % of patients (6 months, ACR50 responders, observed data): 51% | Mean change TSS in radiographic progressors (ΔTSS > 0.5) (6 months, ACR70 responders): 3.4 | Frequency of radiographic progression (ΔTSS > 0.5), % of patients (6 months, ACR70 responders, observed data): 49% | Mean change TSS in radiographic progressors (ΔTSS > 0.5) (6 months, Non-responder (<ACR20)): 10.8 | Frequency of radiographic progression (ΔTSS > 0.5), % of patients (6 months, Non-responder (<ACR20), observed data): 59% | Mean change in TSS (6 months, all points (0-100), observed data): 3.4 | Mean change in TSS (6 months, cumulative probability range 0-10): −2.0 | Mean change in TSS (6 months, cumulative probability range 10-50): 0.2 | Mean change in TSS (6 months, cumulative probability range 50-90): 4.4 | Mean change in TSS (6 months, cumulative probability range 90-100): 16.5 | Annualized rate of radiographic progression (ΔTSS) (6 mos-1 yr): 4.4 Sharp Score Units per Year | Mean change in TSS (26 weeks, observed data): 3.4 | Mean change in TSS (52 weeks, observed data): 5.2 | Mean change in TSS (104 weeks, observed data): 6.4 | Patients with No Radiographic Progression at 1 Year (CRP (BL and Year 1) Abnormal to Normal): 33% | Patients with No Radiographic Progression at 1 Year (CRP (BL and Year 1) Always Normal): 86% | Patients with No Radiographic Progression at 1 Year (CRP (BL and Year 1) Never Normal): 31% | Mean ΔTSS Yr 1-Yr 2 [1]: 5.8 | Mean ΔTSS at 1 year [1]: 7.4 | Mean ΔTSS Yr 1-Yr 2 [2]: 3.4 | Mean ΔTSS at 1 year [2]: 3.8 | No Progression at Month 6, % (Study J): 51% | No Progression at Month 6, patients/total (Study J): 129/252 | No Progression at Month 6 and Year 2, % (Study J): 61% | No Progression at Month 6 and Year 2, patients/Month-6 non-progressors (Study J): 79/129 | Yr-2 Non-P, % (among Mo-6 Non-Progressors): 61% | Yr-2 Non-P, number of patients (among Mo-6 Non-Progressors): 79 | Yr-2 Prog, % (among Mo-6 Non-Progressors): 39% | Yr-2 Prog, number of patients (among Mo-6 Non-Progressors): 50 | Yr-2 Non-P, % (among Mo-6 Progressors): 6% | Yr-2 Non-P, number of patients (among Mo-6 Progressors): 7 | Yr-2 Prog, % (among Mo-6 Progressors): 94% | Yr-2 Prog, number of patients (among Mo-6 Progressors): 116 | TSS after 2 years [3]: 32.2 | change in TSS over 2 years [3]: 7.2 | mean change TSS during year 1 [4]: 3.8 sharp score units | mean change TSS during year 2 [4]: 3.4 sharp score units | TSS after 2 years (disease duration <6 months): 32.4 | change in TSS over 2 years (disease duration <6 months): 13.2 | mean change TSS during year 1 (disease duration <6 months): 7.4 sharp score units | mean change TSS during year 2 (disease duration <6 months): 5.8 sharp score units | rate of change in TSS in ACR20 responders, relative to combination therapy (in vivo): 7 times | Mo-6 Non-Progressors, % of arm (no progression = ΔTSS≦0.5): 51% | Mo-6 Non-Progressors, number of patients (no progression = ΔTSS≦0.5): 129 | patients with no progression at year 2 (no progression at month 6): 61% | Mo-6 Progressors, % of arm (progression = ΔTSS>0.5): 49% | Mo-6 Progressors, number of patients (progression = ΔTSS>0.5): 123 | patients with no progression at year 2 (progression at month 6): 6% | mean change from baseline in TSS (week 26, ITT with imputation): 3.5 | mean change from baseline in TSS (week 52 (1 year), ITT with imputation): 5.7 | mean change from baseline in TSS (week 104 (2 years), ITT with imputation): 10.4
